Laboratory results from publication PMC12752606, “METTL10‐Mediated PIAS3 Methylation Links Purine Metabolism to Gastric Cancer Progression” (Advanced Science, 2025).
Several values for one entry are separate records, joined by “and”; a condition that tells them apart may be missing. Equal entries are not always repeated. Where two headings read alike, the source gives them in different places.

Experiments:
MKN45 xenografts = experiment: MKN45 subcutaneous xenograft model; type: in vivo, BALB/c nude mice; details: 20 or 40 mg/kg i.p. once daily for 2 weeks
Method: For the subcutaneous tumor model, 5 × 10⁶ MKN45 cells suspended in 100 µL of sterile PBS were injected subcutaneously into the flanks of BALB/c nude mice. When tumor volumes reached approximately 50 mm^3, mice were randomized into three groups (Vehicle control, LZQ‐02‐023‐01 at 20 mg/kg or 40 mg/kg, n = 10 per group). All treatments were administered via intraperitoneal injection once daily for 14 consecutive days. Tumor volumes were measured every 2 days using calipers and calculated using the formula: volume = [length × (width[2])]/2. Mice were sacrificed on day 24 for endpoint analyses. For genetically engineered mouse models (GEMMs), 25‐week‐old K19‐C2mE mice were randomized into Vehicle control (n = 8) and LZQ‐02‐023‐01 treatment (40 mg/kg, n = 8) groups. Both groups received daily intraperitoneal injections for 28 consecutive days. Similarly, 8‐week‐old Cldn18‐AT mice were induced with tamoxifen (100 mg/kg, T5648, Sigma) and, 2 weeks post‐induction, randomized into Vehicle (n = 6) and LZQ‐02‐023‐01 (40 mg/kg, n = 6) treatment groups. Treatments were administered daily via intraperitoneal injection for 28 days.
Paraffin sections were initially placed in an oven at 65 °C for 30 min to melt the paraffin. The slides were then immersed in two consecutive xylene baths for 10 min each to dewax the tissue, followed by hydration through a series of graded ethanol solutions. […]

[1] = Plasma pharmacokinetics after IV and PO administration; type: in vivo, male Sprague–Dawley rats; details: for concentration at 5 min: male, Sprague-Dawley, rat, plasma, iv
Method: LZQ‐02‐023‐1 was administered to male Sprague–Dawley (SD) rats (n = 3 per group) via intravenous injection at a dose of 1 mg/kg or oral gavage at a dose of 10 mg/kg. Blood samples were collected at predetermined time points, and plasma concentrations of LZQ‐02‐023‐1 were determined using a validated LC‐MS/MS method. Briefly, working solutions of the analyte were prepared by diluting stock solutions with 50% acetonitrile in water to achieve serial concentrations (10, 20, 50, 100, 200, 500, 1000, 5000, and 10 000 ng/mL). Calibration standards were prepared by spiking 5 µL of working solution into 50 µL of blank SD rat plasma, resulting in final concentrations of 1, 2, 5, 10, 20, 50, 100, 500, and 1000 ng/mL in a total volume of 55 µL. Quality control (QC) samples were independently prepared at four concentrations (2, 5, 50, and 800 ng/mL) using blank SD rat plasma, following the same procedure as for the calibration standards. On the day of analysis, 55 µL of each calibration standard, QC sample, or unknown sample (prepared by mixing 50 µL of SD rat plasma with 5 µL of blank solution) was added to 200 µL of acetonitrile:methanol (1:1, v/v) containing an internal standard (IS) mixture for protein precipitation. The samples were vortexed for 30 s, centrifuged at 4000 rpm for 15 min at 4 °C, and the resulting supernatant was diluted threefold with water. A 10 µL aliquot of the diluted supernatant was injected into an AB Sciex Triple Quad 5500 LC‐MS/MS system for quantitative analysis. Pharmacokinetic parameters, including the maximum plasma concentration (Cmax), time to reach Cmax (Tmax), elimination half‐life (t1⁄2), area under the plasma concentration‐time curve (AUC0–t and AUC0–∞), clearance (CL), and volume of distribution (Vd), were calculated using noncompartmental analysis (NCA) in Phoenix WinNonlin 8.3 (Certara; Table S3, Supporting Information).

[2] = IV 1 mg/kg, individual rats R01-R03, 1 mg/kg
[3] = PO 10 mg/kg, individual rats R04-R06, 10 mg/kg

Cc1ccc(Nc2ncc3c(n2)N(C)C(=O)N(c2cccc(N)c2)C3)cn1 [LZQ-02-023-01, Three‐(3‐aminophenyl)‐1‐methyl‐7‐((6‐methylpyridin‐3‐yl)amino)‐3,4‐dihydropyrimido [4,5‐d] pyrimidin‐2 (1H)‐one]
Growth of xenografts derived from MKN45 cells (MKN45 xenografts): significant reduction
Ki-67 expression, PIAS3-K442 methylation and MITF in xenografts (MKN45 xenografts): significantly decreased
AUC_%Extrap_obs, mean ([1]; IV 1 mg/kg): 1.09%
C0, mean ([1]; IV 1 mg/kg): 2250 ng/mL
Vss_obs, mean ([1]; IV 1 mg/kg): 0.660 L/kg
Plasma concentration ([1]; IV 1 mg/kg, 5 min, individual rats R01-R03, 1 mg/kg): 532 ng/mL and 563 ng/mL
Plasma concentration ([1]; IV 1 mg/kg, 0.25 h, individual rats R01-R03, 1 mg/kg): 35.5 ng/mL and 26.8 ng/mL
Plasma concentration ([1]; IV 1 mg/kg, 0.5 h, individual rats R01-R03, 1 mg/kg): 12.4 ng/mL and 16.0 ng/mL
Plasma concentration ([1]; IV 1 mg/kg, 1 h, individual rats R01-R03, 1 mg/kg): 4.29 ng/mL and 4.07 ng/mL
Plasma concentration ([1]; IV 1 mg/kg, 2 h, individual rats R01-R03, 1 mg/kg): 2.11 ng/mL and 1.86 ng/mL
Plasma concentration ([1]; IV 1 mg/kg, 4 h, individual rats R01-R03): BLOQ (BLOQ = Below quantifiable limit of 1 ng/mL.)
Plasma concentration ([1]; IV 1 mg/kg, 8 h, individual rats R01-R03): BLOQ (BLOQ = Below quantifiable limit of 1 ng/mL.)
Plasma concentration ([1]; IV 1 mg/kg, 24 h, individual rats R01-R03): BLOQ (BLOQ = Below quantifiable limit of 1 ng/mL.)
AUCInf [1, 2]: 170 ng·h/mL and 195 ng·h/mL
AUC_%Extrap_obs [1, 2]: 1.46% and 1.11% and 0.712%
AUClast [1, 2]: 169 ng·h/mL and 193 ng·h/mL
C0 [1, 2]: 2058 ng/mL and 2578 ng/mL
Cl_obs [1, 2]: 97.8 mL/min/kg and 85.6 mL/min/kg
MRTInf_obs [1, 2]: 7.2 min and 5.85 min
T1/2 [1, 2]: 37.4 min and 31 min
Vss_obs [1, 2]: 0.772 L/kg and 0.707 L/kg and 0.501 L/kg
AUC_%Extrap_obs, mean ([1]; PO 10 mg/kg): 12.8%
F (bioavailability) ([1]; PO 10 mg/kg vs IV 1 mg/kg, individual rats R04-R06): 2.37% and 1.27%
Plasma concentration ([1]; PO 10 mg/kg, 0.25 h, individual rats R04-R06, 10 mg/kg): 39.0 ng/mL and 24.0 ng/mL and 8.83 ng/mL
Plasma concentration ([1]; PO 10 mg/kg, 0.5 h, individual rats R04-R06, 10 mg/kg): 20.0 ng/mL and 20.1 ng/mL
Plasma concentration ([1]; PO 10 mg/kg, 1 h, individual rats R04-R06, 10 mg/kg): 7.33 ng/mL and 6.63 ng/mL and 3.54 ng/mL
Plasma concentration ([1]; PO 10 mg/kg, 2 h, individual rats R04-R06, 10 mg/kg): 3.36 ng/mL and 12.9 ng/mL and 3.14 ng/mL
Plasma concentration ([1]; PO 10 mg/kg, 4 h, individual rats R04-R06, 10 mg/kg): 2.02 ng/mL and 1.36 ng/mL
Plasma concentration ([1]; PO 10 mg/kg, 8 h, individual rats R04-R06): BLOQ (BLOQ = Below quantifiable limit of 1 ng/mL.)
Plasma concentration ([1]; PO 10 mg/kg, 24 h, individual rats R04-R06): BLOQ (BLOQ = Below quantifiable limit of 1 ng/mL.)
AUCInf [1, 3]: 42.0 ng·h/mL and 22.6 ng·h/mL
AUC_%Extrap_obs [1, 3]: 15.0% and 5.19% and 18.1%
AUClast [1, 3]: 27.6 ng·h/mL and 39.8 ng·h/mL and 18.5 ng·h/mL
Cmax [1, 3]: 24.0 ng/mL and 20.1 ng/mL
MRTInf_obs [1, 3]: 97.2 min and 134 min
T1/2 [1, 3]: 101 min and 44.9 min and 125 min
Tmax [1, 3]: 30 min
concentration at 5 min ([1]; 1 mg/kg, IV 1 mg/kg, 5 min, individual rats R01-R03, read-out: Plasma concentration): 504 ng/mL
concentration at 5 min ([1]; 1 mg/kg, IV 1 mg/kg, 5 min, read-out: Plasma concentration, mean): 533 ng/mL
